Assay results published in US10745382B2 (BRISTOL-MYERS SQUIBB COMPANY, priority 2015, dated 2020).
Where two headings read alike, the source gives them in different places.

Biological target: T1, PD-1/PD-L1 (Homo sapiens, UniProt Q9NZQ7)
T1 construct: made in house; host or cells: HEK293T
Assay: PD-1/PD-L1 Homogenous Time-Resolved Fluorescence (HTRF) binding assay
Conditions: PD-L1-His 10 nM, PD-1-Ig 20 nM, read-out: Range or IC50
Procedure: The ability of the compounds of formula (I) to bind to PD-L1 was investigated using a PD-1/PD-L1 Homogenous Time-Resolved Fluorescence (HTRF) binding assay.
Homogenous Time-Resolved Fluorescence (HTRF) Binding Assay.
All binding studies were performed in an HTRF assay buffer consisting of dPBS supplemented with 0.1% […] bovine serum albumin and 0.05% (v/v) Tween-20. […] HTRF detection was achieved using europium crypate-labeled anti-Ig (1 nM final) and allophycocyanin (APC) labeled anti-His (20 nM final). Antibodies were diluted in HTRF detection buffer and 5 μl was dispensed on top of the binding reaction. […] Additional binding assays were established between the human proteins PD-1-Ig/PD-L2-His (20 & 5 nM, respectively) and CD80-His/PD-L1-Ig (100 & 10 nM, respectively). […]

T1 sequence (Q9NZQ7 with tags, fused parts or gaps): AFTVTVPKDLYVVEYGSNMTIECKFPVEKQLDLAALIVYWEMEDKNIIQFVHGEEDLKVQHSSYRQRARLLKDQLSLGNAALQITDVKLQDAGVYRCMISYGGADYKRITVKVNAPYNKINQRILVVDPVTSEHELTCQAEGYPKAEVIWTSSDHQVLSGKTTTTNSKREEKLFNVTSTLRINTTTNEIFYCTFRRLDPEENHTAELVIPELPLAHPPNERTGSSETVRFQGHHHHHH

Structure (SMILES)	IC50 (value given as range class) [µM]	IC50 (numeric IC50) [µM]
CCOC(=O)C1(CO)CCN(CCCOc2cccc(-c3cccc(COc4cc(OCc5cncc(C#N)c5)c(CN5CCC(CO)(C(=O)OCC)C5)cc4Cl)c3C)c2Cl)C1 (centres unmarked) [Example 1102, ethyl 1-(3-((2-chloro-3′-((2-chloro-5-((5-cyanopyridin-3-yl)methoxy)-4-((3-(ethoxycarbonyl)-3-(hydroxymethyl)pyrrolidin-1-yl)methyl)phenoxy)methyl)-2′-methyl-[1,1′-biphenyl]-3-yl)oxy)propyl)-3-(hydroxymethyl)pyrrolidine-3-carboxylate]	–	0.0028
Cc1c(COc2cc(OCc3cncc(C#N)c3)c(CN[C@H](CO)C(=O)O)cc2Cl)cccc1-c1cccc(OCCN2CCOCC2)c1 [Example 1001, (R)-2-((5-chloro-2-((5-cyanopyridin-3-yl)methoxy)-4-((2-methyl-3′-(2-morpholinoethoxy)-[1,1′-biphenyl]-3-yl)methoxy)benzyl)amino)-3-hydroxypropanoic Acid]	0.01 to 0.1	–
Cc1c(COc2cc(OCc3cc(F)cc(F)c3)c(CO)cc2Cl)cccc1-c1cccc(OCCCN2CC[C@@H](O)C2)c1C [Example 4522, (R)-1-(3-((3′-((2-chloro-5-((3,5-difluorobenzyl)oxy)-4-(hydroxymethyl)phenoxy)methyl)-2,2′-dimethyl-[1,1′-biphenyl]-3-yl)oxy)propyl)pyrrolidin-3-ol]	0.01 to 0.1	–
Cc1c(COc2cc(OCc3cncc(S(C)(=O)=O)c3)c(CN3CCCC[C@H]3C(=O)O)cc2Cl)cccc1-c1ccc2c(c1)OC(CCN1CC[C@@H](O)C1)CO2 (mixture of isomers) [Example 1507, (2S)-1-(5-chloro-4-((3-(3-(2-((R)-3-hydroxypyrrolidin-1-yl)ethyl)-2,3-dihydrobenzo[b][1,4]dioxin-6-yl)-2-methylbenzyl)oxy)-2-((5-(methylsulfonyl)pyridin-3-yl)methoxy)benzyl)piperidine-2-carboxylic acid]	0.00021 to 0.01	–
Cc1c(COc2cc(OCc3cncc(C#N)c3)c(C(=O)NCCO)cc2Cl)cccc1-c1cccc(OCCCN2CC[C@@H](O)C2)c1C [Example 2379, (R)-5-chloro-2-((5-cyanopyridin-3-yl)methoxy)-N-(2-hydroxyethyl)-4-((3′-(3-(3-hydroxypyrrolidin-1-yl)propoxy)-2,2′-dimethyl-[1,1′-biphenyl]-3-yl)methoxy)benzamide]	0.00021 to 0.01	–
Cc1c(COc2cc(OCc3cncc(C#N)c3)c(CN3CCCC[C@H]3C(=O)O)cc2Cl)cccc1-c1cccc(OCCCN2CCC(O)C2)c1C(F)(F)F (stereo in doubt) [Example 3014, (S)-1-(5-chloro-2-((5-cyanopyridin-3-yl)methoxy)-4-((3′-(3-((R)-3-hydroxypyrrolidin-1-yl)propoxy)-2-methyl-2′-(trifluoromethyl)-[1,1′-biphenyl]-3-yl)methoxy)benzyl)piperidine-2-carboxylic Acid]	0.01 to 0.1	–
CC(=O)NC1CCN(CCCOc2cccc(-c3cccc(COc4cc(OCc5cncc(C#N)c5)c(CN5CCCC[C@H]5C(=O)O)cc4Cl)c3C)c2C)C1 (stereo partly drawn) [Example 2215, (2S)-1-(4-((3′-(3-(3-acetamidopyrrolidin-1-yl)propoxy)-2,2′-dimethylbiphenyl-3-yl)methoxy)-5-chloro-2-((5-cyanopyridin-3-yl)methoxy)benzyl)piperidine-2-carboxylic Acid]	0.00021 to 0.01	–
Cc1c(COc2cc(OCc3ccc(F)c(F)c3)c(CNC(CO)(CO)CO)cc2Cl)cccc1-c1cccc(OCCCN2CC[C@@H](O)C2)c1C [Example 4511, (R)-2-((5-chloro-2-((3,4-difluorobenzyl)oxy)-4-((3′-(3-(3-hydroxypyrrolidin-1-yl)propoxy)-2,2′-dimethyl-[1,1′-biphenyl]-3-yl)methoxy)benzyl)amino)-2-(hydroxymethyl)propane-1,3-diol]	0.00021 to 0.01	–
Cc1c(COc2cc(OCc3cncc(S(C)(=O)=O)c3)c(CN3CCCC[C@H]3C(=O)O)cc2Cl)cccc1-c1cccc(OCCCN2CC[C@@H](O)C2)c1C [Example 1027, (S)-1-(5-chloro-4-((3′-(3-((R)-3-hydroxypyrrolidin-1-yl)propoxy)-2,2′-dimethyl-[1,1′-biphenyl]-3-yl)methoxy)-2-((5-(methylsulfonyl)pyridin-3-yl)methoxy)benzyl)piperidine-2-carboxylic Acid]	0.00021 to 0.01	–
Cc1c(COc2cc(OCc3cncc(C#N)c3)c(CN3CCCC[C@H]3C(=O)O)cc2Cl)cccc1-c1ccc2c(c1C)OCCO2 [Example 3044, (2S)-1-(5-chloro-2-((5-cyanopyridin-3-yl)methoxy)-4-((2-methyl-3-(5-methyl-2,3-dihydrobenzo[b][1,4]dioxin-6-yl)benzyl)oxy)benzyl)piperidine-2-carboxylic Acid]	0.00021 to 0.01	–
CCN(CC)C(=O)c1cccc(-c2cccc(COc3cc(OCc4cncc(C#N)c4)c(CNC(C)(CO)CO)cc3Cl)c2C)c1C [Example 4045, 3′-((2-chloro-5-((5-cyanopyridin-3-yl)methoxy)-4-(((1,3-dihydroxy-2-methylpropan-2-yl)amino)methyl)phenoxy)methyl)-N,N-diethyl-2,2′-dimethyl-[1,1′-biphenyl]-3-carboxamide]	0.1 to 2	–

Other lines, results leading:

IC50 (value given as range class) [µM]	IC50 (numeric IC50) [µM]	Structure (SMILES)
0.00021 to 0.01	–	Cc1c(COc2cc(OCc3cncc(C#N)c3)c(CN[C@@](C)(CO)C(=O)O)cc2Cl)cccc1-c1cccc(OCCC(=O)N2CC[C@@H](O)C2)c1 [Example 1010, (S)-2-((5-chloro-2-((5-cyanopyridin-3-yl)methoxy)-4-((3′-(3-((R)-3-hydroxypyrrolidin-1-yl)-3-oxopropoxy)-2-methyl-[1,1′-biphenyl]-3-yl)methoxy)benzyl)amino)-3-hydroxy-2-methylpropanoic Acid]
0.00021 to 0.01	–	CCOC(=O)C1(CO)CCN(CCCOc2cccc(-c3cccc(COc4cc(OCc5cncc(C#N)c5)c(CN5CCCC[C@H]5C(=O)O)cc4Cl)c3C)c2Cl)C1 (stereo partly drawn) [Example 1101, (2S)-1-(5-chloro-4-((2′-chloro-3′-(3-(3-(ethoxycarbonyl)-3-(hydroxymethyl)pyrrolidin-1-yl)propoxy)-2-methyl-[1,1′-biphenyl]-3-yl)methoxy)-2-((5-cyanopyridin-3-yl)methoxy)benzyl)piperidine-2-carboxylic Acid]
0.00021 to 0.01	–	Cc1c(COc2cc(OCc3cncc(C#N)c3)c(CN3CCCC[C@H]3C(=O)O)cc2Cl)cccc1-c1cccc(OCCCN2CCCCC2)c1C [Example 2213, (2S)-1-(5-chloro-2-((5-cyanopyridin-3-yl)methoxy)-4-((2,2′-dimethyl-3′-(3-(piperidin-1-yl)propoxy)biphenyl-3-yl)methoxy)benzyl)piperidine-2-carboxylic Acid]
0.00021 to 0.01	–	COC(=O)C1(O)CCN(CCCOc2cccc(-c3cccc(COc4cc(OCc5cncc(C#N)c5)c(CN5CCC(O)(C(=O)OC)CC5)cc4Cl)c3C)c2C)CC1 [Example 1091, methyl 1-(5-chloro-2-((5-cyanopyridin-3-yl)methoxy)-4-((3′-(3-(4-hydroxy-4-(methoxycarbonyl)piperidin-1-yl)propoxy)-2,2′-dimethyl-[1,1′-biphenyl]-3-yl)methoxy)benzyl)-4-hydroxypiperidine-4-carboxylate]
0.00021 to 0.01	–	Cc1c(COc2cc(OCc3cncc(C#N)c3)c(CO)cc2Cl)cccc1-c1cccc(OCCCNC[C@H](O)CO)c1Cl [Example 2005, (S)-5-((4-chloro-5-((2′-chloro-3′-(3-((2,3-dihydroxypropyl)amino)propoxy)-2-methyl-[1,1′-biphenyl]-3-yl)methoxy)-2-(hydroxymethyl)phenoxy)methyl)nicotinonitrile]
0.00021 to 0.01	–	CCC(CO)(CO)NCCCOc1cccc(-c2cccc(COc3cc(OCc4cncc(C#N)c4)c(CNC(CC)(CO)CO)cc3Cl)c2C)c1C [Example 2278, 5-((4-chloro-2-(((1-hydroxy-2-(hydroxymethyl)butan-2-yl)amino)methyl)-5-((3′-(3-((1-hydroxy-2-(hydroxymethyl)butan-2-yl)amino)propoxy)-2,2′-dimethyl-[1,1′-biphenyl]-3-yl)methoxy)phenoxy)methyl)nicotinonitrile]
0.00021 to 0.01	–	Cc1c(COc2cc(OCc3cncc(C#N)c3)c(CN[C@](C)(CO)C(=O)O)cc2Cl)cccc1-c1cccc(OCCCNC(CO)CO)c1Cl [Example 2038, (R)-2-((5-chloro-4-((2′-chloro-3′-(3-((1,3-dihydroxypropan-2-yl)amino)propoxy)-2-methyl-[1,1′-biphenyl]-3-yl)methoxy)-2-((5-cyanopyridin-3-yl)methoxy)benzyl)amino)-3-hydroxy-2-methylpropanoic Acid]
0.00021 to 0.01	–	Cc1c(COc2cc(OCc3cncc(C#N)c3)c(CN3CC[C@@H](O)C3)cc2Cl)cccc1-c1cccc(OCCCN2CC[C@@H](O)C2)c1C [Example 2201, 5-((4-chloro-2-(((R)-3-hydroxypyrrolidin-1-yl)methyl)-5-((3′-(3-((R)-3-hydroxypyrrolidin-1-yl)propoxy)-2,2′-dimethylbiphenyl-3-yl)methoxy)phenoxy)methyl)nicotinonitrile]
0.00021 to 0.01	–	Cc1c(COc2cc(OCc3cncc(C#N)c3)c(CN3CC[C@H](CO)[C@H](O)C3)cc2Cl)cccc1-c1cccc(OCCCN2CC[C@H](CO)[C@H](O)C2)c1C [Example 2257, 5-((4-chloro-2-(((3S,4R)-3-hydroxy-4-(hydroxymethyl)piperidin-1-yl)methyl)-5-((3′-(3-((3S,4R)-3-hydroxy-4-(hydroxymethyl)piperidin-1-yl)propoxy)-2,2′-dimethylbiphenyl-3-yl)methoxy)phenoxy)methyl)nicotinonitrile]
